In patent publication USRE49022E1, “Insecticidal compounds” (SYNGENTA PARTICIPATIONS AG, priority 2013, dated 2022):

How the values were obtained:
Format in all cases: in vivo
[1] = system: Diabrotica balteata (Corn Root Worm); assay: Diabrotica balteata, artificial diet MTP test; settings: 120 h, 200 ppm (concentration in well 18 ppm), L2 larvae, larval mortality after 5 days
How it was run: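 Artificial diet treated with test solution at 200 ppm application rate (18 ppm in well), dried, then infested with L2 larvae (6-10 per well). Larval mortality checked after 5 days of incubation.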

[2] = system: Myzus persicae (Green Peach Aphid); assay: Myzus persicae, sunflower leaf disc spray test; settings: foliar, 144 h, sprayed sunflower leaf discs, aphid population of mixed ages, mortality after 6 DAT
Experimental: Sunflower leaf discs were placed on agar in a 24-well microtiter plate and sprayed with test solutions at an application rate of 200 ppm. After drying, the leaf discs were infested with an aphid population of mixed ages. After an incubation period of 6 DAT, samples were checked for mortality.

[3] = system: Myzus persicae (Green Peach Aphid); assay: Myzus persicae, sucrose solution / Parafilm test; settings: 120 h, mixed with sucrose solution under Parafilm, mortality 5 days after infestation
How it was run: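 Compounds mixed into sucrose solution at 12.5 ppm, sealed under stretched Parafilm, with aphid-infested pea seedlings placed on the Parafilm and the plate inverted so aphids feed through the membrane. Mortality assessed 5 days after infestation.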

[4] = system: Plutella xylostella (Diamond Back Moth); assay: Plutella xylostella, artificial diet MTP test; settings: 144 h, 200 ppm (concentration in well 18 ppm), L2 larvae, 6 days
How it was run: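 Artificial diet treated at 200 ppm application rate (18 ppm in well), dried, then infested with 7–12 L2 larvae per well. Larval mortality and growth regulation assessed after 6 days.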

[5] = system: Spodoptera littoralis (Egyptian Cotton Leafworm); assay: Spodoptera littoralis, cotton leaf disc spray test; settings: foliar, 72 h, sprayed cotton leaf discs, L1 larvae, 3 days after treatment
Excerpt: Cotton leaf discs were placed on agar in a 24-well microtiter plate and sprayed with test solutions at an application rate of 200 ppm. After drying, the leaf discs were infested with 5 L1 larvae. The samples were checked for mortality 3 days after treatment (DAT).

[6] = system: Spodoptera littoralis (Egyptian Cotton Leaf Worm); assay: Spodoptera littoralis, agar / lettuce root uptake test; settings: 144 h, mixed with agar, uptake by lettuce roots, mortality 6 days after infestation
[7] = system: Tetranychus urticae (Two-Spotted Spider Mite); assay: Tetranychus urticae, bean leaf disc spray test; settings: foliar, 192 h, sprayed bean leaf discs, mite populations of mixed ages, 8 days
Excerpt: Bean leaf discs on agar in 24-well microtiter plates were sprayed with test solutions at an application rate of 200 ppm. After drying, the leaf discs are infested with mite populations of mixed ages. 8 days later, discs were checked for mortality.

[8] = system: Thrips tabaci (Onion Thrips); assay: Thrips tabaci, sunflower leaf disc spray test; settings: foliar, 168 h, sprayed sunflower leaf discs, mortality after 7 days

CCN(C(=O)c1ccc[n+]([O-])c1)c1cccc(C(=O)Nc2c(Br)cc(C(F)(C(F)(F)F)C(F)(F)Cl)cc2OC(F)F)c1OC (stereo not shown) [Compound 48]
≥ 80%: pest or weed control at 200 ppm [1] | pest or weed control at 200 ppm [2] | pest or weed control at 12.5 ppm [3] | mortality at 200 ppm [4] | mortality at 200 ppm [5] | pest or weed control at 12.5 ppm [6] | mortality at 200 ppm [7] | pest or weed control at 200 ppm [8]

CCc1cc(C(F)(C(F)(F)F)C(F)(F)Cl)cc(Br)c1NC(=O)c1cccc(N(CC)C(=O)c2ccc[n+]([O-])c2)c1OC (stereo not shown) [Compound 50]
≥ 80%: pest or weed control at 200 ppm [1] | pest or weed control at 200 ppm [2] | pest or weed control at 12.5 ppm [3] | mortality at 200 ppm [4] | mortality at 200 ppm [5] | pest or weed control at 12.5 ppm [6] | mortality at 200 ppm [7] | pest or weed control at 200 ppm [8]
